Numbers after ± are expanded uncertainties.
Conditions: Fluid (supercritical or subcritical phases), Buoyancy - hydrostatic balance with magnetic suspension - one sinker

FC(F)Cl [chlorodifluoromethane]
specific volume [m3/kg]
Conditions	298.2 K	323.2 K	348.2 K	373.2 K	423.2 K	473.2 K	523.2 K	573.2 K
10000 kPa	0.000815 ± 7e-06	0.00087 ± 7e-06	0.000955 ± 8e-06	0.001091 ± 1.4e-05	0.002006 ± 4.1e-05	0.003216 ± 6.8e-05	0.004117 ± 9.3e-05	0.004957 ± 0.00011
20000 kPa	0.000787 ± 6e-06	0.000831 ± 7e-06	0.000887 ± 7e-06	0.000967 ± 9e-06	0.001169 ± 2.2e-05	0.001531 ± 4.2e-05	0.001932 ± 5.6e-05	0.00244 ± 6.7e-05
30000 kPa	0.000771 ± 6e-06	0.00081 ± 7e-06	0.000852 ± 7e-06	0.000907 ± 8e-06	0.001037 ± 9e-06	0.00121 ± 1.3e-05	0.001431 ± 1.8e-05	0.001751 ± 2.5e-05
40000 kPa	0.000755 ± 6e-06	0.00079 ± 6e-06	0.000828 ± 7e-06	0.000875 ± 7e-06	0.000973 ± 8e-06	0.001089 ± 1e-05	0.001241 ± 1.2e-05	0.001393 ± 1.5e-05
50000 kPa	0.000743 ± 6e-06	0.000773 ± 6e-06	0.000807 ± 7e-06	0.000842 ± 7e-06	0.000923 ± 8e-06	0.001015 ± 8e-06	0.001126 ± 9e-06	0.001258 ± 1.1e-05
75000 kPa	0.000717 ± 6e-06	0.000743 ± 6e-06	0.000768 ± 6e-06	0.000797 ± 6e-06	0.000856 ± 7e-06	0.000922 ± 7e-06	0.000987 ± 8e-06	0.00105 ± 9e-06
100000 kPa	0.000698 ± 6e-06	0.000715 ± 6e-06	0.000742 ± 6e-06	0.000765 ± 6e-06	0.000814 ± 7e-06	0.000867 ± 7e-06	0.00092 ± 7e-06	0.000968 ± 8e-06
125000 kPa	0.000682 ± 5e-06	0.000699 ± 6e-06	0.000719 ± 6e-06	0.000741 ± 6e-06	0.000784 ± 6e-06	0.00083 ± 7e-06	0.000872 ± 7e-06	0.000911 ± 7e-06
150000 kPa	0.00067 ± 5e-06	0.000683 ± 5e-06	0.000701 ± 6e-06	0.000722 ± 6e-06	0.000759 ± 6e-06	0.000797 ± 6e-06	0.000835 ± 7e-06	0.00087 ± 7e-06
175000 kPa	0.000657 ± 5e-06	0.00067 ± 5e-06	0.000686 ± 6e-06	0.000705 ± 6e-06	0.000738 ± 6e-06	0.000772 ± 6e-06	0.000808 ± 7e-06	0.00084 ± 7e-06
200000 kPa	0.000646 ± 5e-06	0.00066 ± 5e-06	0.000674 ± 5e-06	0.000689 ± 6e-06	0.000721 ± 6e-06	0.000754 ± 6e-06	0.000785 ± 6e-06	0.000814 ± 7e-06
225000 kPa	0.000638 ± 5e-06	0.000651 ± 5e-06	0.000663 ± 5e-06	0.000677 ± 5e-06	0.000707 ± 6e-06	0.000735 ± 6e-06	0.000764 ± 6e-06	0.00079 ± 6e-06
250000 kPa	0.00063 ± 5e-06	0.000643 ± 5e-06	0.000655 ± 5e-06	0.000667 ± 5e-06	0.000695 ± 6e-06	0.00072 ± 6e-06	0.000744 ± 6e-06	0.000767 ± 6e-06
275000 kPa	0.000624 ± 5e-06	0.000635 ± 5e-06	0.000646 ± 5e-06	0.000658 ± 5e-06	0.000682 ± 5e-06	0.000705 ± 6e-06	0.000728 ± 6e-06	0.000749 ± 6e-06
300000 kPa	0.000617 ± 5e-06	0.000628 ± 5e-06	0.000639 ± 5e-06	0.00065 ± 5e-06	0.000673 ± 5e-06	0.000694 ± 6e-06	0.000714 ± 6e-06	0.000732 ± 6e-06
325000 kPa	0.000611 ± 5e-06	0.000621 ± 5e-06	0.000632 ± 5e-06	0.000642 ± 5e-06	0.000661 ± 5e-06	0.000683 ± 5e-06	0.000698 ± 6e-06	0.000717 ± 6e-06
350000 kPa	0.000606 ± 5e-06	0.000616 ± 5e-06	0.000625 ± 5e-06	0.000636 ± 5e-06	0.000655 ± 5e-06	0.000671 ± 5e-06	0.000687 ± 6e-06	0.000704 ± 6e-06
375000 kPa	0.0006 ± 5e-06	0.00061 ± 5e-06	0.000619 ± 5e-06	0.000629 ± 5e-06	0.000645 ± 5e-06	0.000661 ± 5e-06	0.000676 ± 5e-06	0.000692 ± 6e-06
400000 kPa	0.000596 ± 5e-06	0.000605 ± 5e-06	0.000614 ± 5e-06	0.000623 ± 5e-06	0.000638 ± 5e-06	0.000652 ± 5e-06	0.000666 ± 5e-06	0.00068 ± 5e-06
425000 kPa	0.000591 ± 5e-06	0.0006 ± 5e-06	0.000608 ± 5e-06	0.000617 ± 5e-06	0.000631 ± 5e-06	0.000644 ± 5e-06	0.000658 ± 5e-06	0.000671 ± 5e-06
450000 kPa	0.000587 ± 5e-06	0.000595 ± 5e-06	0.000603 ± 5e-06	0.000612 ± 5e-06	0.000625 ± 5e-06	0.000637 ± 5e-06	0.000649 ± 5e-06	0.000663 ± 5e-06
475000 kPa	0.000582 ± 5e-06	0.00059 ± 5e-06	0.000598 ± 5e-06	0.000606 ± 5e-06	0.000619 ± 5e-06	0.000629 ± 5e-06	0.00064 ± 5e-06	0.000651 ± 5e-06
500000 kPa	0.000579 ± 5e-06	0.000586 ± 5e-06	0.000594 ± 5e-06	0.000602 ± 5e-06	0.000614 ± 5e-06	0.000623 ± 5e-06	0.000633 ± 5e-06	0.000643 ± 5e-06
